Settings: 298.15 K

O=C(C(=O)c1ccccc1)c1ccccc1
Settings | solubility (mole fraction)
in 2,2,2-trifluoroethanol | 0.0352
in 2-butanone | 0.184
in 2-methyl-1-pentanol | 0.0139
in 3,7-dimethyl-1-octanol | 0.0173
in DMSO | 0.0228
in acetone | 0.16
in acetonitrile | 0.0635
in butyronitrile | 0.151
in chlorobenzene | 0.201
in cyclohexanone | 0.241
in diethyl ether | 0.0674
in diisopropyl ether | 0.0309
in methyl acetate | 0.152
in n-decane | 0.00855
in n-decanol | 0.0212
in n-hexadecane | 0.0118
in propionitrile | 0.129
in propylene carbonate | 0.094
in tert-butanol | 0.0106

— BigSolDB 2.1
